Experimental data taken from patent US20220324909A1, “THERAPEUTIC PEPTIDES” (COHBAR, INC., priority 2019, published 2022).
Non-standard residues stand in square brackets, D forms with d. Primed or numbered codes have the meaning given here. No end group written: not given here. PEG12′ = polyethylene glycol moiety of 12 units

Columns and labels:
3T3-L1 mouse adipocytes = test: Free fatty acid levels in cultured 3T3-L1 mouse adipocytes and insulin dependence (Example 17); type: cell-based; conditions: isoproterenol 0.1 nM; for Free Fatty Acid Levels, Percent of Isoproterenol Control Activity No Insulin: peptide 10 μM alone, relative to isoproterenol treated cells; for Free Fatty Acid Levels, Percent of Isoproterenol Control Activity With Insulin: peptide 10 μM with 0.25 nM insulin, relative to 0.25 nM insulin treated cells
Method: The effect of the peptides on fatty acid metabolism can be assessed using an assay to monitor free fatty acid levels produced by cultured cells such as mouse adipocytes. […] Following 3 h incubation, conditioned medium from each well was transferred to a fresh 96-well plate. […] Absorbance values were expressed as percent control activity relative to 0.1 nM isoproterenol treated cells (no insulin) for 10 μM peptide alone or 0.25 nM insulin treated cells (with insulin) for 10 μM peptide in presence of 0.25 nM insulin. […] Data are presented as averages values from 2-3 independent experiments with each data point performed in triplicate.

C2C12 cells = test: Glucose utilization in cultured C2C12 cells and insulin dependence; type: cell-based, mouse; conditions: 22 h; for Glucose Utilization, Percent of Control Activity No Insulin: peptide 10 μM alone, glucose in medium relative to untreated cells; for Glucose Utilization, Percent of Control Activity With Insulin: peptide 10 μM with 5-20 nM insulin, glucose in medium relative to insulin treated cells
From the text: The effect of the peptides on glucose homeostasis can be assessed using an assay to monitor glucose utilization by cultured cells such as mouse myotubes. […] C2C12 mouse muscle cell line was purchased from Millipore Sigma (Saint Louis, Mo.). […] Three days after plating the medium was removed and with Differentiation Medium (DMEM/low glucose (1 g/L)+2% Horse Serum+antibiotics) added. […] After 5 days of differentiation, the medium was removed from myotube cultures and replaced with Assay Medium (DMEM/low glucose (1 g/L)+antibiotics). […] Following the 5 h incubation the medium was removed and fresh Assay Medium containing compounds added; 10 μM peptide in absence or presence of 5-20 nM insulin, or 1 mM metformin as a potent stimulator of glucose utilization. […] Following 22 h incubation, conditioned medium from each well was transferred to a fresh 96-well plate. Glucose concentrations in the medium were determined using a Glucose Assay kit (Abcam; Cambridge, Mass.) according to the manufacturer's instructions; absorbance measured using a Cytation 3 plate reader at 570 nm (BioTek, Winooski, Vt.). Absorbance values were expressed as percent control activity relative to untreated treated cells (no insulin) for 10 μM peptide alone or 5-20 nM insulin treated cells (with insulin) for 10 μM peptide in presence of 5-20 nM insulin. Untreated cells were used as reference for basal glucose utilization. The relative standard deviation from plate to plate of untreated control was <10%. Metformin at 1 mM was used as a potent control for increasing glucose utilization. Glucose levels for metformin (1 mM) treatment were <10% of the untreated control value. Data are presented as averages values from 2-3 independent experiments with each data point performed in triplicate.

H4-IIE cells = test: Glucose production in cultured H4-IIE cells and insulin dependence; type: cell-based, rat; conditions: 24 h; for Glucose Production, Percent of Control Activity No Insulin: peptide 10 μM alone, relative to untreated cells; for Glucose Production, Percent of Control Activity With Insulin: peptide 10 μM with 800 μM insulin, relative to insulin treated cells
Method: The effect of the peptides on glucose homeostasis can be assessed using an assay to monitor glucose production by cultured cells such as rat hepatocytes. […] Following 24 h incubation, conditioned medium from each well was transferred to a fresh 96-well plate. Glucose concentrations in the medium were determined using a Glucose Assay kit (Abcam; Cambridge, Mass.) according to the manufacturer's instructions; absorbance measured using a Cytation 3 plate reader at 570 nm (BioTek, Winooski, Vt.). […] Untreated cells were used as reference for maximal glucose production. […] Insulin at 800 μM was used as a modest inhibitor glucose production. […] Data are presented as averages values from 2-4 independent experiments with each data point performed in triplicate.

Substance | Free Fatty Acid Levels, Percent of Isoproterenol Control Activity No Insulin (3T3-L1 mouse adipocytes) [%] | Free Fatty Acid Levels, Percent of Isoproterenol Control Activity With Insulin (3T3-L1 mouse adipocytes) [%] | Glucose Utilization, Percent of Control Activity No Insulin (C2C12 cells) [%] | Glucose Utilization, Percent of Control Activity With Insulin (C2C12 cells) [%] | Glucose Production, Percent of Control Activity No Insulin (H4-IIE cells) [%] | Glucose Production, Percent of Control Activity With Insulin (H4-IIE cells) [%]
20 (KRRMMGMVFQCLCGA; (1)..(1) PEG12; (15)..(15) d-Ala) [compound 20] | 101 | 90.7 | 108 | 91 | 98.4 | 108.6
21 (RRMMGMVFQCLCG[dA]K(PEG12′); cysteine pairing not given here) [compound 21] | 109 | 59.1 | 107.5 | 86 | 98.4 | 72.7
22 (RRMVYQCLCG[dA]; cysteine pairing not given here) [compound 22] | 107 | 61.9 | 100.9 | 79.8 | 109.8 | 49.1
23 (RRMVFQCLEG[dA]) [compound 23] | 104 | 57.7 | 102 | 86.6 | 104.3 | 57.7
24 (RRMVYQCLEG[dA]) [compound 24] | 108 | 59.2 | 98.8 | 85.8 | 107.6 | 61.9
25 (RREMVYQCLCG[dA]; cysteine pairing not given here) [compound 25] | 110 | 67.4 | 99.9 | 77.4 | 108.2 | 65.2
26 (RREMVYQCLEG[dA]) [compound 26] | 104 | 52.8 | 102.2 | 98.4 | 111.5 | 103.1
27 (RRMAYQCLEG[dA]) [compound 27] | 108 | 74.2 | 101.2 | 106.2 | 101.7 | 98.9
28 (RRMGYQCLEG[dA]) [compound 28] | 109 | 57.8 | 103.3 | 88.2 | 107.4 | 91.4
29 (RRMMGMVYQCLEG[dA]) [compound 29] | 110 | 52.8 | 99.2 | 92.3 | 113.9 | 148.6
30 (RRMMGMVAQCLEGA; (14)..(14) RRMMGMVAQCLEG(A) [compound 30] | 102 | 56.0 | 97.7 | 88.3 | 105.7 | 65.7
31 (RRMEVYQCLCG[dA]; not fully specified; printed as RRMEVYQCLCG(dA); cysteine pairing not given here) [compound 31] | 113 | 94.6 | 103.7 | 99.2 | 95.5 | 108.3
32 (RRMEVYQCLEG[dA]) [compound 32] | 108 | 62.9 | 103.8 | 85.0 | 99.5 | 81.9
